Laboratory results: ChEMBL document CHEMBL3390831, “Design, synthesis, and structureactivity relationships of indole-3-carboxamides as novel water soluble cannabinoid CB1 receptor agonists” (Medchemcomm, 2010)

How the values were obtained:
Cannabinoid receptor 1 [1] = molecular target: T1, Cannabinoid receptor 1 (Homo sapiens, UniProt P21554)
Description: Agonist activity at human cannabinoid CB1 receptor expressed in CHO cells co-expressing AP-1 response element after 5 hrs by luciferase reporter gene assay

[2] = Aqueous solubility of the compound in phosphate buffered saline at pH 7.1 by shake-flask method; type: physicochemical
[3] = Aqueous solubility of the compound in citrate buffer at pH 5 by shake-flask method; type: physicochemical
[4] = Aqueous solubility of the compound in phosphate buffered saline at pH 7.4 by shake-flask method; type: physicochemical
[5] = Aqueous solubility of the compound in phosphate buffered saline at pH 7 by shake-flask method; type: physicochemical
[6] = Aqueous solubility of the compound in phosphate buffered saline at pH 6.7 by shake-flask method; type: physicochemical
[7] = Clearance in ICR mouse plasma at 3 umol/kg, iv; type: ADME, cell-free
[8] = Elimination half life in ICR mouse plasma at 3 umol/kg, iv; type: ADME, cell-free; details: read-out: beta t1/2 (converted)
Mus musculus [9] = experiment: Antinociceptive activity in iv dosed ICR mouse assessed as time taken for tail flick latency to return to within mean plus two standard deviations of baseline value following twice ED50 dose by tail flick latency test; type: functional
Mus musculus [10] = experiment: Antinociceptive activity in ICR mouse assessed as inhibition of time spent licking formalin injected paw at 0.01 umol/kg, iv after 5 to 10 mins relative to control; type: functional
Mus musculus [11] = experiment: Antinociceptive activity in iv dosed ICR mouse assessed as inhibition of time spent licking formalin injected paw after 5 to 30 mins; type: functional, organism-based
[12] = Tmax in ICR mouse plasma at 3 umol/kg, iv; type: ADME, cell-free
Mus musculus [13] = experiment: Antinociceptive activity in ICR mouse assessed as inhibition of time spent licking formalin injected paw at 0.03 umol/kg, iv after 20 to 30 mins relative to control; type: functional
Mus musculus [14] = experiment: Antinociceptive activity in ICR mouse assessed as inhibition of time spent licking formalin injected paw at 0.1 umol/kg, iv after 5 to 10 mins relative to control; type: functional
Mus musculus [15] = experiment: Antinociceptive activity in ICR mouse assessed as inhibition of time spent licking formalin injected paw at 0.3 umol/kg, iv after 20 to 30 mins relative to control; type: functional
Mus musculus [16] = experiment: Antinociceptive activity in ICR mouse assessed as inhibition of time spent licking formalin injected paw at 0.03 umol/kg, iv after 5 to 10 mins relative to control; type: functional
Brain = experiment: AUC (0 to 1 hr) in ICR mouse brain at 3 umol/kg, iv; type: ADME, tissue-based; set-up: time < 1 hr, dose 3 umol/kg, route intravenous; details: in vivo
[17] = Tmax in ICR mouse brain at 3 umol/kg, iv; type: ADME, tissue-based
[18] = AUC in ICR mouse plasma at 3 umol/kg, iv; type: ADME, cell-free
Mus musculus [19] = experiment: Antinociceptive activity in ICR mouse assessed as inhibition of time spent licking formalin injected paw at 0.01 umol/kg, iv after 20 to 30 mins relative to control; type: functional
Mus musculus [20] = experiment: Antinociceptive activity in ICR mouse assessed as increase of tail flick latency at 0.3 umol/kg, iv after 20 to 60 mins by tail flick latency test relative to control; type: functional
[21] = Cmax in ICR mouse plasma at 3 umol/kg, iv; type: ADME, cell-free; set-up: dose 3 umol/kg, route intravenous
[22] = Ratio of Cmax in brain to plasma in ICR mouse at 3 umol/kg, iv; type: ADME, cell-free; details: brain and plasma, read-out: BPR
Cannabinoid receptor 1 [23] = molecular target: T1, Cannabinoid receptor 1; experiment: biochemical
[24] = Intrinsic clearance in human liver microsomes; type: ADME; details: read-out: CLH
Homo sapiens [25] = species: Homo sapiens; experiment: Selectivity ratio of Ki for human ERG to Ki for human cannabinoid CB1 receptor
Mus musculus [26] = experiment: Antinociceptive activity in ICR mouse assessed as inhibition of time spent licking formalin injected paw at 0.3 umol/kg, iv after 5 to 10 mins relative to control; type: functional
Mus musculus [27] = experiment: Antinociceptive activity in iv dosed ICR mouse assessed as increase of tail flick latency after 20 to 60 mins by tail flick latency test; type: functional, organism-based
[28] = Intrinsic clearance in mouse liver microsomes; type: ADME; details: read-out: CLH
[29] = Cmax in ICR mouse brain at 3 umol/kg, iv; type: ADME, tissue-based; set-up: dose 3 umol/kg, route intravenous
[30] = Volume of distribution at steady state in ICR mouse plasma at 3 umol/kg, iv; type: ADME, cell-free; details: read-out: Vdss
Mus musculus [31] = experiment: Antinociceptive activity in ICR mouse assessed as increase of tail flick latency at 1 umol/kg, iv after 20 to 60 mins by tail flick latency test relative to control; type: functional
Mus musculus [32] = experiment: Antinociceptive activity in ICR mouse assessed as inhibition of time spent licking formalin injected paw at 0.1 umol/kg, iv after 20 to 30 mins relative to control; type: functional
Homo sapiens [33] = species: Homo sapiens; experiment: Selectivity ratio of Ki for human ERG to Ki for human cannabinoid CB2 receptor
Cannabinoid receptor 2 = Cannabinoid receptor 2 (Homo sapiens, UniProt P34972); experiment: Displacement of [3H]-CP55940 from human cannabinoid CB2 receptor expressed in Sf9 insect cells after 70 mins by scintillation counting
Mus musculus [34] = experiment: Antinociceptive activity in ICR mouse assessed as increase of tail flick latency at 0.1 umol/kg, iv after 20 to 60 mins by tail flick latency test relative to control; type: functional

T1 sequence (P21554 whole entry): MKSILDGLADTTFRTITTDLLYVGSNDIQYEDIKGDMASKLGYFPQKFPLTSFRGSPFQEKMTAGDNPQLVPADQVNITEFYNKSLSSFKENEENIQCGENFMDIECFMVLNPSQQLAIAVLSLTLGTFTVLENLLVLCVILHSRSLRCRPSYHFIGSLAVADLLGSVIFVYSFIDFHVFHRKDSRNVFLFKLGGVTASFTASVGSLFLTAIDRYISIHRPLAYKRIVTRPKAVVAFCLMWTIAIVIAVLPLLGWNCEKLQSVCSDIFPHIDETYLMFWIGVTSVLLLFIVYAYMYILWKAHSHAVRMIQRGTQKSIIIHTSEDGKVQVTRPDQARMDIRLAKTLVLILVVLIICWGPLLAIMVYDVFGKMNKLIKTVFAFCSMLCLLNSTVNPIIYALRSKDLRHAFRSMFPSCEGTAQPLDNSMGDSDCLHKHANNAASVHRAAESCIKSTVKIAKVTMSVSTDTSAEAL
Cannabinoid receptor 2, sequence (P34972 whole entry): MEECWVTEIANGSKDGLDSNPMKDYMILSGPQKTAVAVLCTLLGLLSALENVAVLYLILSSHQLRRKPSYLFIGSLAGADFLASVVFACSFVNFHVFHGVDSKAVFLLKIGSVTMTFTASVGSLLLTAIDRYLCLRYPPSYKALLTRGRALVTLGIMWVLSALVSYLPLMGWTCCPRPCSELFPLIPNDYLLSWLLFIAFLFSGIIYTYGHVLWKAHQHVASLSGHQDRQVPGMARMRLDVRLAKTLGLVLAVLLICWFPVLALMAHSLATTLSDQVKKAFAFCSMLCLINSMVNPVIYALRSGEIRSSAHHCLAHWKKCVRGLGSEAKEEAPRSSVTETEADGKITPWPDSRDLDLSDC

With `CCN1CCN(C(=O)c2cn(CC3CCCCC3)c3cc(Br)ccc23)CC1` the EC50 (Cannabinoid receptor 1 [1]) was 1000 nM.

`CCN1CCN(C(=O)c2cn(CC3CCCCC3)c3c(OC)cccc23)C[C@H]1C.Cl` showed a solubility thermodynamic [2] of 74 µg/mL, an EC50 (Cannabinoid receptor 1 [1]) of 631 nM and a solubility thermodynamic [3] of over 4000 µg/mL.

Work on `CS(=O)(=O)O.O=C(Cc1ccccc1)N/N=C1\C(=O)N(CC2CCCCC2)c2cc(OCCN3CCOCC3)ccc21` yielded a solubility thermodynamic [4] of under 500 µg/mL.

`CCN1CCN(C(=O)c2cn(CC3CCCCC3)c3ccccc23)CC1` gave an EC50 (Cannabinoid receptor 1 [1]) of 316 nM.

Compound `COc1cccc2c(C(=O)N3CCN(C)C(C)(C)C3)cn(CC3CCCCC3)c12.Cl` has a solubility thermodynamic [5] of 129 µg/mL, an EC50 (Cannabinoid receptor 1 [1]) of 158 nM and a solubility thermodynamic [3] of 2160 µg/mL.

With `CCN1CCN(C(=O)c2cn(CC3CCCCC3)c3c(OC)cccc23)CC1.O=C(O)/C=C\C(=O)O` the solubility thermodynamic [6] was 216 µg/mL and the solubility thermodynamic [3] was 3400 µg/mL.

Compound `CCN1CCN(C(=O)c2cn(CC3CCCCC3)c3cc(Cl)ccc23)CC1` has an EC50 (Cannabinoid receptor 1 [1]) of 1580 nM.

With `CCN1CCN(C(=O)c2cn(CC3CCCCC3)c3c(Br)cccc23)CC1` the EC50 (Cannabinoid receptor 1 [1]) was 794 nM.

`CCN1CCN(C(=O)c2cn(CCN3CCOCC3)c3c(OC)cccc23)CC1` gave an EC50 (Cannabinoid receptor 1 [1]) of over 3160 nM.

Work on `CN(C)CCNC(=O)c1cn(CC2CCCCC2)c2ccccc12` yielded an EC50 (Cannabinoid receptor 1 [1]) of over 3160 nM.

Work on `CCN1CCN(C(=O)c2cn(Cc3ccccc3)c3c(OC)cccc23)CC1` yielded an EC50 (Cannabinoid receptor 1 [1]) of over 3160 nM.

For `CCN1CCN(C(=O)c2cn(CC3CCCCCC3)c3c(OC)cccc23)CC1`, the EC50 (Cannabinoid receptor 1 [1]) was 794 nM.

In the case of `O=C(NCc1ccccc1)c1cn(CC2CCCCC2)c2ccccc12`, the EC50 (Cannabinoid receptor 1 [1]) is reported as 63.1 nM.

`COc1cccc2c(C(=O)N3C[C@@H](C)N(C)[C@@H](C)C3)cn(CC3CCCCC3)c12.Cl` showed a clearance [7] of 77.4 mL/min/kg, a half-life [8] of 19.2 min and a Time (Mus musculus [9]) of 50 min. For the same compound, the inhibition in vivo at 0.01 µmol/kg (Mus musculus [10]) was 16.4%, the inhibition (Mus musculus [11]) was “Dose-dependent effect” and the solubility thermodynamic [5] was 12 µg/mL. For the same compound, the Tmax [12] was 3 min, the inhibition in vivo at 0.03 µmol/kg (Mus musculus [13]) was 86.9% and the inhibition in vivo at 0.1 µmol/kg (Mus musculus [14]) was 84%. The inhibition in vivo at 0.3 µmol/kg (Mus musculus [15]) was 99.8%, the inhibition in vivo at 0.03 µmol/kg (Mus musculus [16]) was 49.5% and the AUC (Brain) was 616 ng·h/g. It also gave a Tmax [17] of 3 min, an AUC [18] of 253 ng·h/mL and an inhibition in vivo at 0.01 µmol/kg (Mus musculus [19]) of 7.8%. For the same compound, the MPE (Mus musculus [20]) was 72.3%, the Cmax [21] was 593 ng/mL and the Kp [22] was 2.7. For the same compound, the Ki (Cannabinoid receptor 1 [23]) was 1.26 nM, the microsomal CLint [24] was over 270 µL/min/mg and the Ratio Ki (Homo sapiens [25]) was over 100. The inhibition in vivo at 0.3 µmol/kg (Mus musculus [26]) was 97.8%, the solubility thermodynamic [3] was over 4000 µg/mL and the Activity (Mus musculus [27]) was “Dose-dependent effect”. For the same compound, the microsomal CLint [28] was over 270 µL/min/mg, the Cmax [29] was 1620 ng/g and the Vd [30] was 2 L/kg. The MPE (Mus musculus [31]) was 100%, the inhibition in vivo at 0.1 µmol/kg (Mus musculus [32]) was 93.3% and the Ratio Ki (Homo sapiens [33]) was over 100. It also gave a Ki (Cannabinoid receptor 2) of 0.794 nM and an MPE (Mus musculus [34]) of 14.5%.

Work on `CCN1[C@H](C)CN(C(=O)c2cn(CC3CCCCC3)c3c(OC)cccc23)C[C@@H]1C.Cl` yielded a solubility thermodynamic [5] of 9 µg/mL and a solubility thermodynamic [3] of over 4000 µg/mL.

In the case of `CCN1CCN(C(=O)c2cn(CC3CCCCC3)c3ccc(OC)cc23)CC1`, the EC50 (Cannabinoid receptor 1 [1]) is reported as over 3160 nM.

With `CCN1CCN(C(=O)c2cn(CC3CCCCC3)c3c(OC)cccc23)C[C@@H]1C.Cl` the solubility thermodynamic [2] was 37 µg/mL, the EC50 (Cannabinoid receptor 1 [1]) was 39.8 nM and the solubility thermodynamic [3] was over 4000 µg/mL.
